Assay [1] concerns sumoylation levels (SUMO 2/3 conjugates) in HCT-116 cells. As to the kind of experiment: HCT-116 4 Hour Cell Assay (Western, SUMO 2/3 conjugates). The class given is cell-based. Particulars: 4 h treatment, Anti-Sumo 2-3 immunoblot, read-out: HCT-116 Western 4 h IC50 (μM) Ave. On the procedure: This protocol describes the procedures used to assess the effects of compounds of interest on sumoylation levels. Immunoblot of SUMO 2/3 conjugates are performed and IC50 curves are generated upon quantification of sumoylations bands. HCT-116 cells are seeded in a 12 well plate (500,000 cells/well). The following day the cells are treated with compounds of interest (resuspended in DMSO) for 4 hours (11 concentrations with a three-fold dilution; starting concentration 25 μM) Following 4 hours of incubation the cells are washed with ice cold PBS 1×and protein extraction is performed with RIPA buffer supplemented with phosphatases and proteases inhibitors, 25 mM of NEM and 50 units/mL of Benzonase. Samples undergo centrifugation at 13,000 RPM, 4° C., for 10 minutes and the supernatant is collected. Protein quantification is performed using BCA. Non-Reducing Laemmli Buffer is added to the samples. Samples are heated at 75° C. for 10 minutes, and are centrifuged for 3 minutes at 9000 RPM Nupage 4-12% Bis Tris gels and 1× MOPS buffer (Fisher Scientific)+1× NuPAGE Antioxidant (Invitrogen) are used to perform the SDS-PAGE gel electrophoresis (20 to 40 μg of proteins are loaded in the gels). Proteins are then transferred to PVDF membranes and the level of total proteins are measured by staining with Revert Total Protein Stain and the fluorescent bands are acquired using the LI-COR FC (700 nm for 1 min) Membranes are blocked for 5 minutes with Bio-Rad Blocking Buffer and are subsequently incubated over night at 4° C. with Anti-Sumo 2-3 mAb (M BL #M114-3, 1:1000 in Bio-Rad Blocking Buffer, 0.2% Tween 20) Membranes are washed with 1×TBS-T (3 times for 5 minutes) and sumoylation is detected using Li-cor IRDye 800CW Goat anti-Mouse IgG secondary antibody (1:10,000 dilution) upon 1 hour of incubation in blocking buffer with 0.2% Tween 20 and 0.01% SDS. After the incubation, the membranes are washed with 1×TBS-T (3 times for 5 minutes). To visualize the fluorescent bands the membranes are scanned with LI-COR FC (700 nm for 1 min and […] for 2 mins). Sumoylation levels are quantified upon normalization with total protein levels, using the LI-COR Image Studio Lite 5.2 Software.

Another assay deals with SAE1 (Homo sapiens (Human), UniProt Q9UBE0+Q9UBT2). The assay is described as follows: SAE High Throughput Biochemical Assay (HTRF), 15 min preincubation. Particulars: read-out: 15 min preincubation HTRF IC50 (μM) Ave, SAE1 12.5 nM, ATP 100 μM. In outline:
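HTRF detection of SUMO transfer from SUMO-GST to UBC9-His (40 nM each) by SAE1 at 12.5 nM used 100 μM ATP in pH 7.5 HEPES buffer with 10 mM MgCl2 and 0.1% BSA. Enzyme and compound were preincubated 15 min at RT and the reaction ran 45 min, with readings after 2 h and overnight.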
Background: Time-resolved FRET reads energy transfer from a long-lived donor to a nearby acceptor.

These results are taken from patent US20240360148A1 (SUVALENT THERAPEUTICS, INC., priority 2021, published 2024).

Where two headings read alike, the source gives them in different places.

SAE1, sequence (Q9UBE0 whole entry): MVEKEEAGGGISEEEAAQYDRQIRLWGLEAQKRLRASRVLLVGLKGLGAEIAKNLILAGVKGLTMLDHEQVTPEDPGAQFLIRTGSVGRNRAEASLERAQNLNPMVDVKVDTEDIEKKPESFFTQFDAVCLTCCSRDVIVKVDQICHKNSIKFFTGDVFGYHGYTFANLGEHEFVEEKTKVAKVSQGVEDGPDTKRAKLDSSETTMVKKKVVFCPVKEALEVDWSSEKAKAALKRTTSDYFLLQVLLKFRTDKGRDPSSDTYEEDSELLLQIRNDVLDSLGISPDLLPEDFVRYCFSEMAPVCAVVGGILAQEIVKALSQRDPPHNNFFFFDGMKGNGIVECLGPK
SAE1, sequence (Q9UBT2 whole entry): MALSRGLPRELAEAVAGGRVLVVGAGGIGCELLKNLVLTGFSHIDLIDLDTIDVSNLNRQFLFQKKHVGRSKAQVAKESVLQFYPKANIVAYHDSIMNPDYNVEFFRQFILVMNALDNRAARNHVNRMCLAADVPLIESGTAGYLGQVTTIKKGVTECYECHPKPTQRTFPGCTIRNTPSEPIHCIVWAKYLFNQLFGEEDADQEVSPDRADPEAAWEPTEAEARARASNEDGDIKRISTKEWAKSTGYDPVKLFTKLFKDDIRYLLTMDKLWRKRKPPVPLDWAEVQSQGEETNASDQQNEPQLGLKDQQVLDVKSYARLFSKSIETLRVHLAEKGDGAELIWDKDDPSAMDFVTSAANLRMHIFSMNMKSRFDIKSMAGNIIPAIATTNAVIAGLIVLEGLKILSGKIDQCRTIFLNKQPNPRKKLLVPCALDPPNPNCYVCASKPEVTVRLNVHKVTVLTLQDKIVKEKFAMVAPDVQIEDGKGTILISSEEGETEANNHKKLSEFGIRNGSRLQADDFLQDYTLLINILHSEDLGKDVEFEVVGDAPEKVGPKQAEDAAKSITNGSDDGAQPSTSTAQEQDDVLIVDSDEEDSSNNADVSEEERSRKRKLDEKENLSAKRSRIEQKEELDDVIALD

In the case of `CN(C)CC#CC(=O)N1Cc2sc(C#N)cc2[C@H](c2ccccc2-c2c[nH]nc2C(F)(F)F)C1` [Example 151, (S)-6-(4-(Dimethylamino)but-2-ynoyl)-4-(2-(3-(trifluoromethyl)-1 H-pyrazol-4-yl)phenyl)-4,5,6,7-tetrahydrothieno[2,3-c]pyridine-2-carbonitrile], the IC50 (usually the midpoint of a concentration-inhibition curve) in assay [1] (Homo sapiens, HCT-116, 4 h) was 0.587 µM; on SAE1, 0.18 µM.
Taken in the same sequence, the figures for `CCn1cc(-c2ccccc2[C@@H]2CN(C(=O)C#CC3CCCN3)Cc3sc(C#N)cc32)c(C(F)(F)F)n1` (stereo partly drawn) [Example 139, (4S)-4-(2-(1-Ethyl-3-(trifluoromethyl)-1 H pyrazol-4-yl)phenyl)-6-(3-(pyrrolidin-2-yl)propioloyl)-4,5,6,7-tetrahydrothieno[2,3-c]pyridine-2-carbonitrile] were 0.97 µM and 0.07 µM.
As to `CCn1cc(-c2ccccc2[C@H]2c3cc(C#N)sc3CN(C(=O)/C=C/CN(C)C)[C@@H]2C)c(C(F)(F)F)n1` [Compound 233], the IC50 in assay [1] (Homo sapiens, HCT-116, 4 h) turned out to be 0.914 µM; at SAE1, 4.82 µM.
Turning to `CCn1cc(-c2c(Cl)cccc2[C@@H]2CN(C(=O)/C=C/CN(C)C)Cc3sc(C#N)cc32)c(C(F)(F)F)n1` [Compound 243], the IC50 in assay [1] (Homo sapiens, HCT-116, 4 h) was 0.502 µM; on SAE1, 1.17 µM.
As for `CNC/C=C/C(=O)N1Cc2sc(C#N)cc2[C@H](c2cccc(F)c2-c2cn(C)nc2C(F)(F)F)C1` [Example 129, (S,E)-4-(3-Fluoro-2-(1-methyl-3-(trifluoromethyl)-1 H pyrazol-4-yl)phenyl)-6-(4-(methylamino)but-2-enoyl)-4,5,6,7-tetrahydrothieno[2,3-c]pyridine-2-carbonitrile], the IC50 in assay [1] (Homo sapiens, HCT-116, 4 h) is 0.249 µM; at SAE1, 0.505 µM.
Taken in the same sequence, the figures for `CCn1cc(-c2ccccc2[C@@H]2CN(C(=O)C#C[C@]3(C)CCCN3)Cc3sc(C#N)cc32)c(C(F)(F)F)n1` [Example 140, (S)-4-(2-(1-Ethyl-3-(trifluoromethyl)-1 H-pyrazol-4-yl)phenyl)-6-(3-((S)-2-methylpyrrolidin-2-yl)propioloyl)-4,5,6,7-tetrahydrothieno[2,3-c]pyridine-2-carbonitrile] were 2.36 µM and 0.12 µM.
Taken in the same sequence, the figures for `CCNC/C=C/C(=O)N1Cc2sc(C#N)cc2[C@H](c2ccccc2-c2cn(CC)nc2C(F)(F)F)C1` [Example 99, (S, E)-4-(2-(1-Ethyl-3-(trifluoromethyl)-1 H-pyrazol-4-yl)phenyl)-6-(4-(ethylamino)but-2-enoyl)-4,5,6,7-tetrahydrothieno[2,3-c]pyridine-2-carbonitrile] were 0.563 µM and 2.83 µM.
Regarding `CCn1cc(-c2c(C(F)F)cccc2C2CN(C(=O)/C=C/CN(C)C)Cc3sc(C#N)cc32)c(C(F)(F)F)n1` (stereo not shown) [Compound 241], the IC50 was 0.445 µM in assay [1] (Homo sapiens, HCT-116, 4 h) and 5.52 µM at SAE1.
On to `CN(C)C/C=C/C(=O)N1Cc2sc(C#N)cc2[C@H](c2ccccc2-c2cn(CCF)nc2C(F)(F)F)C1` [Example 17, (S,E)-6-(4-(dimethylamino)but-2-enoyl)-4-(2-(1-(2-fluoroethyl)-3-(trifluoromethyl)-1 H-pyrazol-4-yl)phenyl)-4,5,6,7-tetrahydrothieno[2,3-c]pyridine-2-carbonitrile], for which the IC50 in assay [1] (Homo sapiens, HCT-116, 4 h) came to 0.269 µM; at SAE1 it was 2.47 µM.
For `CCn1cc(-c2c(F)cc(F)cc2[C@@H]2CN(C(=O)/C=C/CN(C)C)Cc3sc(C#N)cc32)c(C(F)(F)F)n1` [Compound 238], the IC50 in assay [1] (Homo sapiens, HCT-116, 4 h) was 0.844 µM; at SAE1 it was 1.79 µM.
As to `CN(C)C/C=C/C(=O)N1Cc2sc(C#N)cc2[C@H](c2ccccc2-c2cn(-c3c(F)cncc3F)nc2C(F)(F)F)C1` [Example 159, (S,E)-4-(2-(1-(3,5-Difluoropyridin-4-yl)-3-(trifluoromethyl)-1H pyrazol-4-yl)phenyl)-6-(4-(dimethylamino)but-2-enoyl)-4,5,6,7-tetrahydrothieno[2,3-c]pyridine-2-carbonitrile], the IC50 in assay [1] (Homo sapiens, HCT-116, 4 h) worked out at 0.128 µM; at SAE1, 4.52 µM.
Regarding `CCn1cc(-c2ccccc2[C@@H]2CN(C(=O)/C=C/C3CCCCN3)Cc3sc(C#N)cc32)c(C(F)(F)F)n1` (stereo partly drawn) [Example 111, (4S)-4-(2-(1-Ethyl-3-(trifluoromethyl)-1H pyrazol-4-yl)phenyl)-6-((E)-3-(piperidin-2-yl)acryloyl)-4,5,6,7-tetrahydrothieno[2,3-c]pyridine-2-carbonitrile], the IC50 in assay [1] (Homo sapiens, HCT-116, 4 h) turned out to be 0.909 µM; on SAE1 it was 3.36 µM.
Taken in the same sequence, the figures for `CCn1cc(-c2ccccc2[C@@H]2CN(C(=O)C#CC3CNC3)Cc3sc(C#N)cc32)c(C(F)(F)F)n1` [Example 147, (S)-6-(3-(Azetidin-3-yl)propioloyl)-4-(2-(1-ethyl-3-(trifluoromethyl)-1 H pyrazol-4-yl)phenyl)-4,5,6,7-tetrahydrothieno[2,3-c]pyridine-2-carbonitrile] were 3.47 µM and 0.62 µM.
As for `CCn1cc(-c2c(F)cccc2[C@@H]2CN(C(=O)/C=C/[C@@H]3C[C@H]4C[C@H]4N3)Cc3sc(C#N)cc32)c(C(F)(F)F)n1` [Example 92, (S)-6-((E)-3-((IR,3S,5R)-2-azabicyclo[3.1.0]hexan-3-yl)acryloyl)-4-(2-(1-ethyl-3-(trifluoromethyl)-1H pyrazol-4-yl)-3-fluorophenyl)-4,5,6,7-tetrahydrothieno[2,3-c]pyridine-2-carbonitrile], the IC50 was 0.451 µM in assay [1] and 0.4 µM on SAE1.
Turning to `C=CC(=O)N1Cc2sc(C#N)c(C)c2C(c2ccccc2-c2cn(CC)nc2C(F)(F)F)C1` (stereo not shown) [Compound 231], the IC50 in assay [1] (Homo sapiens, HCT-116, 4 h) worked out at 1 µM; at SAE1, 0.16 µM.
Turning to `C=C(C(=O)N1Cc2sc(C#N)cc2[C@H](c2ccccc2-c2cn(CC)nc2C(F)(F)F)C1)C(F)(F)F` [Example 60, (S)-4-(2-(1-Ethyl-3-(trifluoromethyl)-1 H pyrazol-4-yl)phenyl)-6-(2-(trifluoromethyl)acryloyl)-4,5,6,7-tetrahydrothieno[2,3-c]pyridine-2-carbonitrile], the IC50 was 2.59 µM in assay [1] (Homo sapiens, HCT-116, 4 h) and 1.36 µM at SAE1.
For `CCn1cc(-c2ccccc2[C@@H]2CN(C(=O)/C=C/[C@H](C)NC)Cc3sc(C#N)cc32)c(C(F)(F)F)n1` [Example 84, (S)-4-(2-(1-Ethyl-3-(trifluoromethyl)-1 H pyrazol-4-yl)phenyl)-6-((S, E)-4-(methylamino)pent-2-enoyl)-4,5,6,7-tetrahydrothieno[2,3-c]pyridine-2-carbonitrile], the IC50 came out at 0.503 µM in assay [1] (Homo sapiens, HCT-116, 4 h) and 2.79 µM at SAE1.
On to `CCn1cc(-c2c(Cl)cc(F)cc2C2CN(C(=O)/C=C/CN(C)C)Cc3sc(C#N)cc32)c(C(F)(F)F)n1` (stereo not shown) [Example 186, (E)-4-(3-Chloro-2-(1-ethyl-3-(trifluoromethyl)-1 H-pyrazol-4-yl)-5-fluorophenyl)-6-(4-(dimethylamino)but-2-enoyl)-4,5,6,7-tetrahydrothieno[2,3-c]pyridine-2-carbonitrile], for which the IC50 in assay [1] (Homo sapiens, HCT-116, 4 h) turned out to be 2.13 µM; at SAE1 it was 6.37 µM.
Taken in the same sequence, the figures for `CCNC/C=C/C(=O)N1Cc2sc(C#N)cc2[C@H](c2cccc(F)c2-c2cn(CC)nc2C(F)(F)F)C1` [Example 100, (S, E)-4-(2-(1-Ethyl-3-(trifluoromethyl)-1 H-pyrazol-4-yl)-3-fluorophenyl)-6-(4-(ethylamino)but-2-enoyl)-4,5,6,7-tetrahydrothieno[2,3-c]pyridine-2-carbonitrile] were 0.174 µM and 1.38 µM.
For the compound `CCn1cc(-c2ccccc2[C@@H]2CN(C(=O)/C=C/[C@@H]3CC4(CC4)CN3)Cc3sc(C#N)cc32)c(C(F)(F)F)n1` [Example 116, (S)-6-((E)-3-((S)—S-Azaspiro(2.4]heptan-6-yl)acryloyl)-4-(2-(1-ethyl-3-(trifluoromethyl)-1H pyrazol-4-yl)phenyl)-4,5,6,7-tetrahydrothieno[2,3-c]pyridine-2-carbonitrile], the IC50 in assay [1] (Homo sapiens, HCT-116, 4 h) amounted to 0.202 µM; on SAE1, 1.49 µM.
